Laboratory results taken from PMC12030043, “Preparation and Therapeutic Evaluation of Engineered Semaglutide and Statin–Lipid Conjugate-Based Nanoparticle” (Pharmaceutics, 2025).

Columns and labels:
[1] = tested on: high-fat diet (HFD)-fed mouse model; assay: Anti-obesity effect (body weight) in high-fat diet (HFD)-fed mouse model; format: in vivo; conditions: HFD-fed C57BL/6 mice, day 69, s.c. every three days from day 28; RO 0.5 mg/kg, SRLC NPs 1.1 mg/kg; mean ± S.D., n = 5
Method: (§1) All animal experiments were conducted under the standard regulations of the Institutional Animal Care and Use Committee (IACUC) at Konkuk University (ref. no. KU22078-1). The animals were housed in a controlled environment with regulated temperature and humidity, maintained under a 12 h light–dark cycle. Obesity was induced in 5-week-old male C57BL/6 mice through dietary control for 69 days. A total of 25 mice were used and divided into five experimental groups: negative control (regular diet, RD), positive control (high-fat diet, HFD), RO (0.5 mg/kg), RLC (1 mg/kg), and SRLC NPs (1.1 mg/kg). The RO dose was set at half that of RLC due to its molecular weight being approximately twice that of RLC, ensuring equivalent molar exposure. Additionally, the SRLC NP dose was adjusted to 1.1 mg/kg as it comprised 1 mg of RLC and 0.1 mg of semaglutide, allowing for the accurate comparison of therapeutic effects. While the RD group received a normal diet, the other groups were fed a high-fat diet (HFD) consisting of 60 kcal% fat (D12492, Research Diets, New Brunswick, NJ, USA). The body weights of the mice were measured weekly. Starting from day 28 of the dietary intervention, each group received their respective substances via subcutaneous injection every three days. […] Blood glucose levels were then measured at time intervals of 0, 15, 30, 60, 90, 120, and 180 min (n = 3).

[2] = tested on: high-fat diet (HFD)-fed mouse model; assay: Histopathology (H&E and oil red O staining) of liver and adipose tissue in HFD-fed mice; format: in vivo, C57BL/6 mice
Method: All animal experiments were conducted under the standard regulations of the Institutional Animal Care and Use Committee (IACUC) at Konkuk University (ref. no. KU22078-1). The animals were housed in a controlled environment with regulated temperature and humidity, maintained under a 12 h light–dark cycle. Obesity was induced in 5-week-old male C57BL/6 mice through dietary control for 69 days. A total of 25 mice were used and divided into five experimental groups: negative control (regular diet, RD), positive control (high-fat diet, HFD), RO (0.5 mg/kg), RLC (1 mg/kg), and SRLC NPs (1.1 mg/kg). The RO dose was set at half that of RLC due to its molecular weight being approximately twice that of RLC, ensuring equivalent molar exposure. Additionally, the SRLC NP dose was adjusted to 1.1 mg/kg as it comprised 1 mg of RLC and 0.1 mg of semaglutide, allowing for the accurate comparison of therapeutic effects. While the RD group received a normal diet, the other groups were fed a high-fat diet (HFD) consisting of 60 kcal% fat (D12492, Research Diets, New Brunswick, NJ, USA). The body weights of the mice were measured weekly. Starting from day 28 of the dietary intervention, each group received their respective substances via subcutaneous injection every three days. Five days before the end of the experiment, an oral glucose tolerance test (OGTT) was conducted to assess glucose sensitivity. After 19 h of fasting, all experimental groups were administered a glucose solution orally (2 g/kg). Blood glucose levels were then measured at time intervals of 0, 15, 30, 60, 90, 120, and 180 min (n = 3). Blood glucose levels were assessed using a glucometer (G CARE, GC Medical Science, Yongin, Republic of Korea). On the final day of the experiment, after 14 h of fasting, the mice were anesthetized via intraperitoneal administration of 2,2,2-tribromoethanol (TBE), and blood samples were collected. Hepatotoxicity and lipid profiling analyses were conducted using the collected blood samples, while liver tissues were subjected to hematoxylin and eosin (H&E) and oil red O (ORO) staining for further evaluation. All analyses were performed by KP&T Technology (Cheongju, Republic of Korea).
Representative images of mice from the HFD group and the SRLC NPs-treated group on the final day of the experiment are shown in Figure 9A. To evaluate the pathological changes at the tissue level and the therapeutic effects of SRLC NPs, hematoxylin and eosin (H&E) staining and oil red O (ORO) staining were performed (Figure 9B). These staining analyses were conducted to confirm the reduction in hepatic fat accumulation and assess adipose tissue remodeling following SRLC NPs treatment. […] The area of the adipocyte in sWAT (n = 4) was as follows: HFD, 78.86 ± 1.38%; RO, 77.51 ± 2.52%; RLC, 72.72 ± 2.75%; and SRLC NPs, 47.45 ± 1.03% (Figure 9E). The diameter of the adipocyte in eWAT (n = 7) was the following: HFD, 64.12 ± 12.51 µm; RO, 59.53 ± 6.42 µm; RLC, 57.01 ± 7.04 µm; and SRLC NPs, 33.79 ± 3.62 µm (Figure 9F). The area of the adipocyte in eWAT (n = 4) was as follows: HFD, 76.44 ± 1.91%; RO, 79.30 ± 1.91%; RLC, 79.223 ± 1.53%; and SRLC NPs, 63.28 ± 2.94% (Figure 9G).

[3] = tested on: high-fat diet (HFD)-fed mouse model; assay: Oral glucose tolerance test (OGTT) in HFD-fed mice; format: in vivo, C57BL/6 mice; conditions: day 64, 19 h fasting, oral glucose 2 g/kg, 0-180 min, glucometer, n = 3; RO 0.5 mg/kg, RLC 1 mg/kg, SRLC NPs 1.1 mg/kg s.c.
Method: as §1

[4] = conventional semaglutide formulations; ref [11],[12]; cited from earlier work
Excerpt: Obesity and non-alcoholic fatty liver disease (NAFLD) have emerged as critical health concerns in modern society, closely linked to diabetes, cardiovascular diseases, and metabolic syndrome. As one of the most rapidly increasing metabolic disorders worldwide, there is a continuous demand for the development of effective therapeutic agents and treatment strategies.

Row | Compound | body weight at the end of the experiment [1] [g] | lipid staining and fat droplet accumulation in liver tissue (in words) ([2]; H&E and ORO staining, RO 0.5, RLC 1, SRLC NPs 1.1 mg/kg s.c.) | diameter of the adipocyte in sWAT ([2]; H&E, HFD group 60.32 ± 6.95 µm, mean ± S.D., n = 7) [µm] | diameter of the adipocyte in eWAT ([2]; H&E, HFD group 64.12 ± 12.51 µm, mean ± S.D., n = 7) [µm] | area of the adipocyte in eWAT ([2]; H&E, HFD group 76.44 ± 1.91%, mean ± S.D., n = 4) [%] | area of the adipocyte in sWAT ([2]; H&E, HFD group 78.86 ± 1.38%, mean ± S.D., n = 4) [%] | quantification of ORO staining ([2]; liver tissue, HFD group = 100.00 ± 15.00%, RO 0.5, RLC 1, SRLC NPs 1.1 mg/kg s.c., mean ± S.D., n = 4) [%] | blood glucose response in OGTT (in words) [3] | oral bioavailability [4]
1 | CC(C)c1nc(N(C)S(C)(=O)=O)nc(-c2ccc(F)cc2)c1/C=C/[C@@H](O)C[C@@H](O)CC(=O)O [RO, Rosuvastatin calcium] | 36.20 ± 2.34 | abnormal fat droplet accumulation | 51.20 ± 8.99 | 59.53 ± 6.42 | 79.30 ± 1.91 | 77.51 ± 2.52 | 70.50 ± 8.02 | sharp increase in blood glucose levels immediately after administration, followed by a gradual decline | 
2 | CC[C@H](C)[C@H](NC(=O)[C@H](Cc1ccccc1)NC(=O)[C@H](CCC(=O)O)NC(=O)[C@H](CCCCNC(=O)COCCOCCNC(=O)COCCOCCNC(=O)CC[C@H](NC(=O)CCCCCCCCCCCCCCCCC(=O)O)C(=O)O)NC(=O)[C@H](C)NC(=O)[C@H](C)NC(=O)[C@H](CCC(N)=O)NC(=O)CNC(=O)[C@H](CCC(=O)O)NC(=O)[C@H](CC(C)C)NC(=O)[C@H](Cc1ccc(O)cc1)NC(=O)[C@H](CO)NC(=O)[C@H](CO)NC(=O)[C@@H](NC(=O)[C@H](CC(=O)O)NC(=O)[C@H](CO)NC(=O)[C@@H](NC(=O)[C@H](Cc1ccccc1)NC(=O)[C@@H](NC(=O)CNC(=O)[C@H](CCC(=O)O)NC(=O)C(C)(C)NC(=O)[C@@H](N)Cc1cnc[nH]1)[C@@H](C)O)[C@@H](C)O)C(C)C)C(=O)N[C@@H](C)C(=O)N[C@@H](Cc1c[nH]c2ccccc12)C(=O)N[C@@H](CC(C)C)C(=O)N[C@H](C(=O)N[C@@H](CCCNC(=N)N)C(=O)NCC(=O)N[C@@H](CCCNC(=N)N)C(=O)NCC(=O)O)C(C)C [semaglutide] |  |  |  |  |  |  |  |  | ~ 1%
